Measured values reported in ChEMBL document CHEMBL1201862, “PubChem BioAssay data set” (2004).
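Five concentrations, 48 hours, 96-well plates. GI50 = concentration required for 50% inhibition of growth.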 Activity calls are given as the source filed them. No stated cut-off is given here; in the data, active = GI50 up to about 1.1 µM and inactive = higher.

Columns and labels:
Assay in all cases: NCI tumour cell line growth inhibition, 48 h
ACHN = test system: ACHN
UACC-257 = test system: UACC-257
HOP-92 = test system: HOP-92
HL-60 = test system: HL-60
NCI-H226 = test system: NCI-H226
OVCAR-4 = test system: OVCAR-4
SK-OV-3 = test system: SK-OV-3
SK-MEL-28 = test system: SK-MEL-28
U-251 = test system: U-251
Malme-3M = test system: Malme-3M
HCC 2998 = test system: HCC 2998
MOLT-4 = test system: MOLT-4
IGROV-1 = test system: IGROV-1
OVCAR-5 = test system: OVCAR-5
SK-MEL-2 = test system: SK-MEL-2
CCRF-CEM = test system: CCRF-CEM

Measured: GI50

NCCCNCCSSCCCCS(=O)O
inactive: ACHN 55.2 µM | UACC-257 17.2 µM | HOP-92 > 100 µM | HL-60 10.4 µM | NCI-H226 57.8 µM | OVCAR-4 14.6 µM | SK-OV-3 > 100 µM | SK-MEL-28 20.9 µM | U-251 > 100 µM | Malme-3M 20.3 µM | HCC 2998 > 100 µM | MOLT-4 5.09 µM | IGROV-1 > 100 µM | OVCAR-5 55.1 µM

C=CCN(N=O)C(=O)NCCCCC(NC(C)=O)C(=O)NCc1ccccc1 (configuration not stated)
inactive: ACHN > 100 µM | UACC-257 > 100 µM | HOP-92 > 100 µM | HL-60 > 100 µM | NCI-H226 42.5 µM | OVCAR-4 > 100 µM | SK-OV-3 > 100 µM | SK-MEL-28 > 100 µM | U-251 > 100 µM | Malme-3M > 100 µM | SK-MEL-2 72.6 µM | MOLT-4 > 100 µM | IGROV-1 > 100 µM | CCRF-CEM > 100 µM | OVCAR-5 > 100 µM

CC(=O)N1C/C(=C\c2ccc(N(C)C)cc2)C(=O)/C(=C/c2ccc(N(C)C)cc2)C1
inactive: ACHN 87.5 µM | UACC-257 47.4 µM | HOP-92 > 100 µM | HL-60 29.9 µM | NCI-H226 57.9 µM | OVCAR-4 > 100 µM | SK-OV-3 55.7 µM | SK-MEL-28 > 100 µM | U-251 31.1 µM | Malme-3M 75.7 µM | HCC 2998 58.2 µM | MOLT-4 51.4 µM | IGROV-1 53.2 µM | CCRF-CEM 46.9 µM | OVCAR-5 > 100 µM

O=C1CCC(=O)N1Sc1ccccc1
inactive: ACHN > 100 µM | UACC-257 > 100 µM | HOP-92 > 100 µM | HL-60 > 100 µM | OVCAR-4 > 100 µM | SK-OV-3 > 100 µM | SK-MEL-28 > 100 µM | U-251 > 100 µM | SK-MEL-2 > 100 µM | MOLT-4 > 100 µM | IGROV-1 > 100 µM | CCRF-CEM 42.4 µM

CC(=O)Nc1ccc(-c2nnc(SCC(=O)Nc3ccc(C)cc3)o2)cc1
inactive: ACHN 31.6 µM | UACC-257 20.3 µM | HOP-92 18.4 µM | HL-60 27.8 µM | NCI-H226 27.5 µM | OVCAR-4 17.7 µM | SK-OV-3 49.2 µM | SK-MEL-28 16.1 µM | U-251 19.4 µM | Malme-3M 15.7 µM | SK-MEL-2 14.5 µM | MOLT-4 32.1 µM | IGROV-1 12.9 µM | CCRF-CEM 24.3 µM | OVCAR-5 19.6 µM

O=C1C(c2ccc(Br)cc2)=[N+]([O-])c2ccccc21
inactive: ACHN 13.4 µM | UACC-257 11.3 µM | HOP-92 7.21 µM | HL-60 2.14 µM | NCI-H226 13.1 µM | SK-OV-3 55.1 µM | SK-MEL-28 20.2 µM | U-251 14.7 µM | Malme-3M 18.4 µM | SK-MEL-2 11.7 µM | HCC 2998 13.5 µM | MOLT-4 4.79 µM | IGROV-1 17.4 µM | CCRF-CEM 4.12 µM | OVCAR-5 20.8 µM

c1ccc2c(c1)n1nnnc1c1nnnn21
inactive: ACHN > 100 µM | UACC-257 > 100 µM | HOP-92 18.6 µM | NCI-H226 > 100 µM | OVCAR-4 32.4 µM | SK-OV-3 > 100 µM | SK-MEL-28 > 100 µM | U-251 > 100 µM | Malme-3M > 100 µM | SK-MEL-2 > 100 µM | HCC 2998 > 100 µM | MOLT-4 > 100 µM | IGROV-1 > 100 µM | CCRF-CEM > 100 µM | OVCAR-5 > 100 µM

CC(C(=O)N1C(=O)N(C(=O)C(C)C(O)c2ccccc2)C2CCCCC21)C(O)c1ccccc1 (configuration not stated)
inactive: ACHN 58.9 µM | HL-60 27.7 µM | OVCAR-4 57.4 µM | SK-MEL-28 > 100 µM | U-251 > 100 µM | Malme-3M 57.4 µM | SK-MEL-2 30.3 µM | MOLT-4 26.2 µM | IGROV-1 > 100 µM | CCRF-CEM 44.2 µM | OVCAR-5 > 100 µM

CC(=O)OC1COC(N2CCc3cc([N+](=O)[O-])ccc32)C(OC(C)=O)C1OC(C)=O (configuration not stated)
inactive: ACHN > 100 µM | UACC-257 > 100 µM | HOP-92 36 µM | NCI-H226 63.7 µM | OVCAR-4 > 100 µM | SK-OV-3 > 100 µM | SK-MEL-28 > 100 µM | U-251 > 100 µM | SK-MEL-2 > 100 µM | MOLT-4 > 100 µM | IGROV-1 > 100 µM | CCRF-CEM > 100 µM

CNC(=S)OCCC(C)CCCC(C)C (configuration not stated)
inactive: ACHN 18.8 µM | UACC-257 16.4 µM | HL-60 6.84 µM | OVCAR-4 16.7 µM | SK-OV-3 20.9 µM | SK-MEL-28 24.7 µM | U-251 15.5 µM | Malme-3M 21.5 µM | SK-MEL-2 13.7 µM | HCC 2998 18 µM | MOLT-4 11.2 µM | IGROV-1 17.3 µM | CCRF-CEM 19.4 µM | OVCAR-5 11.3 µM

Cc1cc(NCCCCCCCNc2cc(C)nc3cc(N)ccc23)c2ccc(N)cc2n1
inactive: ACHN > 100 µM | UACC-257 47.6 µM | HL-60 3.1 µM | NCI-H226 20.4 µM | OVCAR-4 72.3 µM | SK-OV-3 40.6 µM | SK-MEL-28 32.7 µM | U-251 28.1 µM | Malme-3M 36 µM | SK-MEL-2 78.3 µM | HCC 2998 46.2 µM | MOLT-4 33.4 µM | CCRF-CEM 15.6 µM | OVCAR-5 > 100 µM

CC(C)c1cccc(C(C)C)c1NC(=O)C(=O)CC(=O)CC(c1ccccc1)c1c(O)oc2ccccc2c1=O (configuration not stated)
inactive: ACHN > 100 µM | UACC-257 > 100 µM | HOP-92 > 100 µM | HL-60 > 100 µM | OVCAR-4 > 100 µM | SK-OV-3 > 100 µM | SK-MEL-28 > 100 µM | Malme-3M > 100 µM | SK-MEL-2 > 100 µM | HCC 2998 > 100 µM | MOLT-4 > 100 µM | IGROV-1 > 100 µM | CCRF-CEM > 100 µM | OVCAR-5 > 100 µM

O=c1nc2occc2cn1C1CC(O)C(CO)O1 (configuration not stated)
inactive: ACHN > 100 µM | UACC-257 > 100 µM | HOP-92 > 100 µM | HL-60 > 100 µM | NCI-H226 > 100 µM | OVCAR-4 > 100 µM | SK-OV-3 > 100 µM | SK-MEL-28 > 100 µM | U-251 > 100 µM | Malme-3M > 100 µM | HCC 2998 > 100 µM | MOLT-4 > 100 µM | IGROV-1 > 100 µM | CCRF-CEM > 100 µM | OVCAR-5 > 100 µM

COc1ccc(C2=C(Cl)c3cc(OC)c(OC)cc3C2OC)cc1OC (configuration not stated)
inactive: ACHN > 100 µM | UACC-257 > 100 µM | HOP-92 > 100 µM | HL-60 8.11 µM | NCI-H226 > 100 µM | OVCAR-4 > 100 µM | SK-MEL-28 > 100 µM | Malme-3M > 100 µM | SK-MEL-2 > 100 µM | HCC 2998 > 100 µM | MOLT-4 > 100 µM | IGROV-1 > 100 µM | CCRF-CEM 50.2 µM | OVCAR-5 > 100 µM

Cc1cc(C)c(N)c(C)c1N
inactive: ACHN > 100 µM | UACC-257 > 100 µM | HOP-92 > 100 µM | HL-60 > 100 µM | SK-OV-3 > 100 µM | SK-MEL-28 > 100 µM | U-251 > 100 µM | Malme-3M > 100 µM | SK-MEL-2 > 100 µM | HCC 2998 > 100 µM | MOLT-4 > 100 µM | IGROV-1 > 100 µM | CCRF-CEM > 100 µM | OVCAR-5 > 100 µM

Cc1[nH]c2cc([N+](=O)[O-])ccc2c1[N+](=O)[O-]
inactive: ACHN 15.5 µM | UACC-257 17 µM | HOP-92 3.9 µM | HL-60 20.6 µM | NCI-H226 14.2 µM | OVCAR-4 14.1 µM | SK-MEL-28 21 µM | U-251 19.9 µM | Malme-3M 13.9 µM | SK-MEL-2 14.1 µM | HCC 2998 15 µM | MOLT-4 19.5 µM | IGROV-1 26.2 µM | CCRF-CEM 16.8 µM | OVCAR-5 27.2 µM

Nc1nc2c(ncn2C2OC(CO)C(O)C2N)c(=O)[nH]1 (configuration not stated)
inactive: ACHN > 100 µM | UACC-257 > 100 µM | HOP-92 > 100 µM | HL-60 97.9 µM | SK-OV-3 > 100 µM | SK-MEL-28 > 100 µM | U-251 > 100 µM | Malme-3M > 100 µM | SK-MEL-2 > 100 µM | HCC 2998 > 100 µM | MOLT-4 > 100 µM | IGROV-1 > 100 µM | CCRF-CEM 40.1 µM | OVCAR-5 > 100 µM

O=C1NC(=S)NC(=O)C1=Cc1cc2c(cc1[N+](=O)[O-])OCO2
inactive: ACHN > 100 µM | UACC-257 > 100 µM | HL-60 35.8 µM | NCI-H226 > 100 µM | OVCAR-4 > 100 µM | SK-OV-3 > 100 µM | SK-MEL-28 > 100 µM | U-251 > 100 µM | Malme-3M > 100 µM | SK-MEL-2 > 100 µM | HCC 2998 > 100 µM | MOLT-4 51.4 µM | IGROV-1 > 100 µM | CCRF-CEM 55.3 µM

Cc1ccc(C)c(NC(=O)C(=O)C2C(=O)N(c3ccccc3)N=C2N)c1 (configuration not stated)
inactive: ACHN > 100 µM | UACC-257 > 100 µM | HOP-92 > 100 µM | HL-60 31.7 µM | NCI-H226 > 100 µM | OVCAR-4 > 100 µM | SK-MEL-28 > 100 µM | U-251 > 100 µM | Malme-3M > 100 µM | SK-MEL-2 > 100 µM | HCC 2998 > 100 µM | MOLT-4 > 100 µM | IGROV-1 > 100 µM | CCRF-CEM > 100 µM | OVCAR-5 > 100 µM
